Results published in US10576078B2 (Council of Scientific & Industrial Research, priority 2017, dated 2020).

Legend:
stat5 = test: Immunoblotting of stat5 expression and phosphorylation in K562 cells; type: cell-based, Human
Procedure: K562 cells were treated as indicated for 72 h and stat5 expression was assessed by immunoblotting. Pioglitazone (Pio) was used as a positive control. Data is one representative of 3 independent experiments.
K562 cells were treated as indicated for 30 min and stat5 phosphorylation at Y694 or CrkL phosphorylation at Y207 were assessed by immunoblotting. Total stat5 or β-actin expression was assessed to ensure equal loading. Pio was used as a negative control and IMT was used as a positive control. Data is one representative of 3 independent experiments.
K562 cells were cultured in 6 well plates and treated as indicated in figures or descriptions of FIG. 1E, FIG. 1G and FIG. 2D-E. Cells were then homogenized in lysis buffer containing 50 mM Tris-HCl, pH 7.5, 150 mM NaCl, 1% NP40, 5 mM EDTA, 1 mM DTT, protease and phosphatase inhibitor cocktails (Sigma) and incubated on ice for 30 min followed by 5 cycles of freeze-thaw. Samples were then centrifuged at 14000 rpm at 4° C. for 30 min. Supernatants were then quantified by Bichinchonic acid (Sigma)-based protein estimation. Equal amount of proteins were solubilized in Laemmli buffer, and were resolved by 10%-12% SDS PAGE and transferred onto PVDF membranes (Millipore; Billerica, Mass.). […] Immunoreactivity was detected using a chemiluminescent HRP Substrate (Millipore) in a LAS 4010 Chemi-doc Imager (GE Healthcare, Little Chalfont, UK). […]

[1] = rat, in vivo, po
Description: (§1) Sprague-Dawley rats (n=6 per group) were divided into 3 groups. […] Plasma was separated and processed for analysis by LC-MS/MS. For pharmacokinetic and statistical analysis, plasma concentration versus time data were plotted and analyzed by non-compartmental analysis method using WinNonlin (Pharsight, Mountain View, Calif.) software.
as §1, with “For this SD” for “Sprague-Dawley”

[2] = system: aldehyde dehydrogenase (ALDH) activity in CP-CML cells; test: Aldefluor assay of aldehyde dehydrogenase activity; type: cell-based, Human; conditions: imatinib-resistant CP-CML cells, n=6, 5 μM, 48 h
Procedure: CP-CML cells from imatinib-resistant patients (n=6) were treated with CFZ or salinomycin (5 μM; 48 h) and aldehyde dehydrogenase activity in these cells were assessed using an ALDEFLUOR kit (Stemcell technologies). ***p<0.0001.
CP-CML cells isolated from imatinib-resistant patients were treated with vehicle (V; 0.1% DMSO), CFZ or salinomycin (both 5 μM) for 48 h (FIG. 2C). Aldehyde dehydrogenase activity in CP-CML cells was assessed using an Aldefluor kit ([…] technologies) by flow cytometry (FACSCalibur).

K562 cells [3] = test: TUNEL assay in K562 cells; type: cell-based, Human; conditions: CFZ 5 μM, 48 h
Procedure: K562 cells were treated with CFZ for 48 h and TUNEL staining was performed followed by fluorescent microscopy. Images are representative of two independent experiments (8 fields per group).

K562 cells [4] = test: Megakaryocytic differentiation in K562 cells (May-Grünwald-Giemsa staining, CD61/CD41 flow cytometry); type: cell-based, Human
Procedure: K562 cells were treated with CFZ for 120 h and May-Grünwald-Giemsa staining followed by light microscopy was used to assess cellular morphology. […] PMA was used as appositive control. Representative photomicrographs from two independent experiments (8 fields per treatment group) are shown.
FIG. 3B-3C in particular show CFZ induces megakaryocytic surface markers CD61 (early) and CD41 (late) in K562 cells. K562 cells were treated as indicated for 72 h (Phorbol myristate acetate (PMA) was used as positive control) and then were stained with IgG isotype control or CD61 (B) & CD41 (C) IgG antibodies and were analyzed by flowcytometry (n=3). ***p<0.0001. PMA was used as a positive control.
May-Grünwald Giemsa Staining: To assess the changes in nuclear morphology, cells treated with vehicle (0.1% DMSO), CFZ (indicated concentrations in FIG. 3A) or PMA (positive control; 10 ng/ml) for 120 h (FIG. 3A). Cells were then washed with phosphate buffer saline (PBS) and were attached to glass slides by cytospin. These slides were stained with Giemsa and May-Grünwald solution (Sigma) as per manufacturer's instruction. Cells were then visualized by microscopy.
Differentiation analyses by flow cytometry: K562 (FIG. 3B-C) or primary CP-CML cells (FIG. 3D-E) were treated with vehicle, CFZ and PMA as indicated in the respective figures and figure descriptions for 72 hrs. Cells were then harvested, washed, and centrifuged, resuspended in 100 μl PBS and were stained with CD41-FITC or CD61-PE antibodies for 30 min at room temperature (in dark). After incubation, the cells were washed and resuspended in 300 μl PBS and were analyzed on a FACSCalibur flow cytometer.

Structure (SMILES): CC(C)/N=c1\cc2n(-c3ccc(Cl)cc3)c3ccccc3nc-2cc1Nc1ccc(Cl)cc1 [CFZ, Clofazimine]
- stat5 phosphorylation (stat5; 30 min, Y694): without altering
- stat5 protein expression (stat5; 72 h, FIG. 2D): suppressed
- Tmax in combination group compared to individual groups [1]: no change
- clearance in combination group compared to individual groups [1]: lower
- aldehyde dehydrogenase (ALDH) activity [2]: remarkably decreased
- apoptosis as determined by TUNEL assay (K562 cells [3]): induces apoptosis
- megakaryocytic differentiation phenotype (K562 cells [4]; 1 μM, 120 h, May-Grünwald-Giemsa staining): induced
- megakaryocytic surface marker CD41 (K562 cells [4]; 72 h): increased
- megakaryocytic surface marker CD61 (K562 cells [4]; 72 h): increased
